Source: publication PMC11802874, “The hypolipidemic effect of MI-883, the combined CAR agonist/ PXR antagonist, in diet-induced hypercholesterolemia model” (Nature Communications, 2025)
Several values for one entry are separate records, joined by “and”; a condition that tells them apart may be missing. Equal entries are not always repeated.

Assays:
[1] = tested on: humanized PXR-CAR-CYP3A4/3A7 mice fed HFD; test: High-fat diet (HFD) study: weights, food intake, plasma biochemistry, histology; type: in vivo, mouse; parameters: BW (Fig 4b) / LW (Fig 4b) / LDL (Fig. 4e) / HDL (Fig. 4e) / TG (Fig. 4e) / Chol (Fig. 4e) / Glu (Fig. 4e) / food intake (Fig 4c) / AST / ALT / ALB / ALP / LDH / Urea / Uric acid / Fe / Bilirubin / CREZ / BW: unit not given here; details: for BW: FigS12c, group mean
Protocol: For experiment involving a HFD in the model of diet-induced metabolic syndrome and type 2 diabetes with hypercholesterolemia, both male and female mice at the age of 10–15 weeks were pretreated for 8 weeks with HFD (E15186 EF R/M with 30% fat, ssniff ®, Soest, Germany) containing 30.1% crude fat, 20.8% protein and 171 mg/kg of cholesterol, ad libitum (Fig. 4a). Mice were then randomly assigned to MI-883 or control groups (17 male animals per group for the control or MI-883-treated group, 15 female animals per group for control and MI-883 treated groups, respectively). They were administered via oral gavage with either MI-883 treatment (5 mg/kg, 3x per week on Mo, We, Fri) or vehicle (5%DMSO/5%PEG300/90%corn oil) while still fed with HFD. Mice were sacrificed after 4 weeks of treatment.
Mice were weighted and tissues (livers, blood, duodenum, jejunum, ileum, white fat) were removed, weighted and snap frozen in liquid nitrogen and stored at –80 °C until analysis. Blood was collected from the retro-orbital sinus of mice under isoflurane anesthesia into heparin-coated tubes (Kabe Laboratortechnik GmbH, Nümbrecht-Elsenroth, Germany) after 3 h fasting and analyzed on AU480 biochemistry analyzer (Beckman Coulter, Brea, USA). Sample preparation for bile acid and cholesterol analyses from tissues or feces is described below. One of the liver lobes was fixed in formalin, embedded in paraffin blocks, sectioned, and subjected to H&E staining. Blood was analyzed as described in Supplementary, Chapter 10.
Blood was collected from the retro-orbital sinus of mice under isoflurane anesthesia into heparin-coated tubes (Kabe Laboratortechnik GmbH, Nümbrecht-Elsenroth, Germany) after 3 hours of fasting. Blood was left for 10 minutes at room temperature, and then kept on ice until centrifugation (5,000 g at 4°C for 10 minutes). The collected plasma was stored at -80 °C until measurement. Lipoprotein levels and other plasmatic parameters were measured on an AU480 biochemistry analyzer (Beckman Coulter, Brea, USA).

[2] = tested on: humanized PXR-CAR-CYP3A4/3A7 mice, ileum; test: RT-qPCR and Western blotting of ileum samples (HFD/HCD studies); type: in vivo, mouse; details: for Npc1l1 mRNA (RT-qPCR ileum): FigS14a
Description: Specific TaqMan probes were used to analyze ileal samples, following the protocol described in Supplementary Table S3.
Western blotting experiments have been performed in BioRad instruments with BioRad precasted gels and reagents. Antibodies are listed in Supplementary Table S4. Densitometry has been done using ChemiDoc™ MP Imaging System and software (BioRad, Hercules, USA). Data are presented as relative protein expression to control samples. For protein expression quantification, areas in histograms have been calculated and related to a reference protein.

[3] = HFD and HCD studies (Fig. 4e, h)
[4] = HFD, MI883 HFD, individual animals
[5] = chow / vehicle / MI-883, individual animals
[6] = individual animals, MI-883 vs vehicle
[7] = normal diet, individual animals
[8] = FigS14b, ileum, individual animals, relative to vehicle

SMILES: NC(=O)c1cc(Cn2cc(-c3c(-c4ccc(Cl)cc4)nc4cc(F)ccn34)nn2)ccc1Cl [MI-883, 2-chloro-5-((4-(2-(4-chlorophenyl)-7-fluoroimidazo[1,2-a]pyridin-3-yl)-1H-1,2,3-triazol-1-yl)methyl)benzamide]
- BW ([1]; time point 0): 100
- BW ([1]; time point 3): 99.94
- BW ([1]; time point 4): 99.69
- BW ([1]; time point 7): 98.81
- BW ([1]; time point 8): 98.7
- BW ([1]; time point 9): 99.01
- BW ([1]; time point 11): 97.62
- BW ([1]; time point 14): 97.62
- BW ([1]; time point 16): 98.66
- BW ([1]; time point 18): 95.35
- BW ([1]; time point 21): 95.54
- BW ([1]; time point 25): 95.05
- hepatic histology, morphology, steatosis with ballooning cells ([1]; H&E staining): did not observe affected hepatic histology, morphology, and steatosis
- plasma HDL cholesterol concentrations in males ([1]; HFD and HCD studies): decrease
- plasma LDL cholesterol levels [1, 3]: systematic decrease
- total plasma cholesterol concentration [1, 3]: systematic decrease
- ALB ([1]; HFD female, individual animals): 24.33 and 24.2 and 23.24 and 26.55 and 24.9
- ALP ([1]; HFD female, individual animals): 113 and 92 and 67 and 82 and 103 and 98 and 123 and 110 and 111 and 88 and 70 and 60 and 74 and 94 and 83 and 97
- ALT ([1]; HFD female, individual animals): 22 and 33 and 42 and 31 and 44 and 26 and 25 and 20 and 30 and 27
- AST ([1]; HFD female, individual animals): 36 and 56 and 60 and 42 and 80 and 46 and 43 and 45 and 48 and 52
- Bilirubin ([1]; HFD female, individual animals): 1.91 and 1.99 and 1.49 and 1.73 and 2.08 and 1.88 and 2.79 and 0.89 and 1.63 and 0.8 and 1.21 and 0.66 and 1.02 and 0.93
- CREZ ([1]; HFD female, individual animals): 8.81 and 10.944 and 9.86 and 9.877 and 9.32 and 9.613 and 6.396
- Fe ([1]; HFD female, individual animals): 19.66 and 16.34 and 16.57 and 13.12 and 20.06 and 22.23 and 20.85
- LDH ([1]; HFD female, individual animals): 105.53 and 141.23 and 148.87 and 187.77 and 168.5 and 171.83 and 139.86 and 141.62 and 132.6 and 117.06 and 243.58 and 169.43 and 199.88 and 175.99 and 186.41 and 240.46 and 159.98
- Urea ([1]; HFD female, individual animals): 6.32 and 7.96 and 9.13 and 6.71 and 5.59 and 7.45 and 7.35 and 5.3
- body weight or food intake ([1]; HFD, 5 mg/kg 3× per week p.o., one month): no significant effect
- liver weight (LW) and liver-to-body weight (LW/BW) ([1]; HFD, after 1-month application): increase
- ALB [1, 4]: 30.28 and 28.44 and 27.19 and 26.19 and 27.85 and 26.86 and 29.5 and 28.87 and 29.11 and 28.18 and 27.81 and 29.6 and 31.94 and 31.6 and 25.37 and 30.94
- ALP [1, 4]: 46 and 65 and 58 and 53 and 57 and 59 and 87 and 78 and 134 and 85 and 147 and 42 and 80 and 203 and 48 and 62 and 47
- ALT [1, 4]: 111 and 104 and 91 and 82 and 86 and 81 and 194 and 185 and 231 and 101 and 144 and 333 and 40 and 171 and 279 and 78 and 136 and 35
- AST [1, 4]: 61 and 103 and 71 and 75 and 84 and 65 and 111 and 106 and 115 and 97 and 60 and 215 and 57 and 86 and 96 and 62
- Bilirubin [1, 4]: 6.24 and 2.33 and 2.77 and 2.03 and 2.43 and 2.14 and 2.07 and 1.65 and 0.69 and 0.83 and 0.78 and 2.19 and 1.62 and 2.1 and 2.2 and 2.29 and 2.82 and 3.89
- CREZ [1, 4]: 6.64 and 6.515 and 6.651 and 6.864 and 6.4 and 11.788 and 9.016 and 8.705 and 10.01 and 10.479 and 10.075 and 9.458 and 9.179 and 10.214 and 7.193 and 7.711
- Fe [1, 4]: 25.96 and 27.35 and 19.07 and 29.46 and 21.87 and 40.46 and 33.38 and 35.58 and 29.04 and 23.68 and 27.39 and 20.96 and 37.12 and 36.65 and 34.04 and 37.51 and 32.98 and 21.67 and 30.02 and 31.93
- LDH [1, 4]: 198.22 and 263.31 and 253.93 and 193.25 and 209.81 and 272.82 and 399.88 and 396.59 and 572.08 and 407.53 and 224.02 and 465.2 and 571.59 and 132.99 and 401.74 and 1012.86 and 180.55 and 261.31 and 251.38 and 204.74
- Urea [1, 4]: 8.86 and 6.88 and 6.46 and 8.34 and 10.25 and 5.64 and 6.34 and 6.16 and 6.83 and 6.9 and 7.15 and 6.75 and 6.76 and 5.98 and 5.4
- Uric acid [1, 4]: 34.39 and 75.29 and 81.6 and 51.23 and 51.93 and 56.87 and 65.17 and 44.52 and 78.74 and 74.95 and 74.71 and 112.08 and 32.89 and 40.5 and 30.33 and 46.79 and 41.52 and 45.58 and 40.84
- food intake (Fig 4c) ([1]; MI-883 vs vehicle line): 2.1 and 3.3 and 2.8 and 2.6 and 2.7
- triglycerides and glucose concentrations in males ([1]; both studies): did not see any significant effects
- signs of hepatotoxicity or nephrotoxicity based on biochemical parameters ([1]; both studies (HFD, HCD)): did not observe
- other plasma biochemical parameters ([1]; both studies, Supplementary Fig. 11): did not impact
- Chol (Fig. 4e) [1, 5]: 4.25 and 4.28 and 2.95 and 3.55 and 3.29 and 4.43 and 4.16 and 4.71 and 4.02 and 3.77 and 3.86 and 4.66 and 3.96 and 4.68 and 3.68
- Glu (Fig. 4e) [1, 5]: 10.58 and 14.95 and 11.18 and 14.52 and 13.99 and 12.86 and 13.45 and 16.77 and 19.28 and 18.71 and 17.05 and 15.9 and 14.58 and 9.64 and 14.8 and 12.42
- HDL (Fig. 4e) [1, 5]: 3.307 and 3.291 and 2.143 and 2.747 and 3.405 and 3.464 and 3.127 and 2.59 and 3.382 and 3.348 and 3.749 and 3.32 and 3.251 and 2.944 and 3.197 and 2.432 and 3.457 and 2.752
- LDL (Fig. 4e) [1, 5]: 0.69 and 0.66 and 0.46 and 0.49 and 0.67 and 0.52 and 0.82 and 0.7 and 1.08 and 0.75 and 0.63 and 0.85 and 1.01 and 0.81
- TG (Fig. 4e) [1, 5]: 3.307 and 3.291 and 2.143 and 2.747 and 3.405 and 3.464 and 3.127 and 2.59 and 3.382 and 3.348 and 3.749 and 3.32 and 3.251 and 2.944 and 3.197 and 2.432 and 3.457 and 2.752
- BW (Fig 4b) [1, 6]: 36.3 and 38.1 and 36.8 and 38.8 and 38 and 34.3 and 36.4 and 31 and 45.2 and 42 and 35.4 and 38.9 and 39.5 and 42.8 and 39.3 and 39.9 and 40 and 37 and 42.6 and 40.9 and 39.2 and 38.5
- LW (Fig 4b) [1, 6]: 2.77 and 2.32 and 1.65 and 2.28 and 2.58 and 2.48 and 2.14 and 2.06 and 1.7 and 3.5 and 3.3 and 1.85 and 3.4 and 3.1 and 4.26 and 3.42 and 3.33 and 3.06 and 2.35 and 3.38 and 2.25 and 3.12 and 1.56
- diarrhea ([1]; mouse, in vivo): did not observe any diarrhea
- Chol (Fig. 4e) [1, 7]: 1.85 and 1.75
- Glu (Fig. 4e) [1, 7]: 12.37 and 16.62
- HDL (Fig. 4e) [1, 7]: 1.205 and 1.168
- LDL (Fig. 4e) [1, 7]: 0.45 and 0.42
- TG (Fig. 4e) [1, 7]: 1.205 and 1.168
- Npc1l1 mRNA (RT-qPCR ileum) ([2]; HCD, ileum, individual animals, relative to vehicle): 0.6886 and 0.6208 and 0.503 and 1.313 and 0.759 and 0.8325
- Npc1l1 mRNA (RT-qPCR ileum) ([2]; HFD, ileum, individual animals, relative to vehicle): 1.357 and 1.364 and 0.9665 and 1.432
- Abcg5 mRNA (RT-qPCR ileum) [2, 8]: 1.01 and 0.5455 and 0.4999 and 1.367 and 0.6847 and 1.339
- Abcg8 mRNA (RT-qPCR ileum) [2, 8]: 0.9573 and 0.7781 and 0.4243 and 1.303 and 0.6152 and 1.193
- Fgf15 mRNA (RT-qPCR ileum) ([2]; FigS14c, HCD, ileum, individual animals, relative to vehicle): 0.6669 and 0.9092 and 0.1811 and 0.1054 and 2.113 and 1.33
- Fgf15 mRNA (RT-qPCR ileum) ([2]; FigS14c, HFD, ileum, individual animals, relative to vehicle): 0.03638 and 0.6965 and 4.34 and 0.01802
- Shp mRNA (RT-qPCR ileum) ([2]; FigS14c, ileum, individual animals, relative to vehicle): 1.017 and 0.2256 and 0.2775 and 0.6923 and 3.416 and 0.8457
- Asbt protein in the mouse ileum ([2]; HFD study): significantly decreased
- ileum Cyp2b6 i, individual animals ([2]; HFD study, relative to control): 4.346 and 14.7968 and 1.588 and 2.908 and 3.922 and 0.8524
- ileum Mrp4 i, individual animals ([2]; HFD study, relative to control): 0.275 and 0.7792 and 1.874 and 1.502 and 1.969 and 1.209
- ileum Slc10a2 i, individual animals ([2]; HFD study, relative to control): 0.08727 and 0.1129 and 0.7704 and 0.8835 and 0.4948
- ileum Slc51a i, individual animals ([2]; HFD study, relative to control): 0.2127 and 0.5386 and 0.8471 and 0.8796 and 0.7946 and 0.7965
- ileum Slc51b i, individual animals ([2]; HFD study, relative to control): 0.7174 and 1.595 and 0.9945 and 0.7427 and 0.4728 and 0.5989
- ileal Npc1l1 and Abcg5/8 ([2]; Supplementary Fig. 14): did not observe any regulation
- ileal Shp and Fgf15 mRNA levels ([2]; Supplementary Fig. 14): not affected
